In EP4813979A1, “COMPOUND FOR EGFR PROTEIN DEGRADATION AND USE THEREOF” (TYK Medicines, Inc., priority 2023, dated 2025):

Legend:
[1] = system: A431; assay: Cell anti-proliferation experiment (CTG); type: cell-based; details: Homo sapiens, A431 (wild-type EGFR)
How it was run: (§1)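 PC-9 (EGFR exon 19 del), H1975 (T790M/L858R), A431 (wild-type EGFR) and a Ba/F3 clone stably expressing mutant EGFR were seeded at 1500-2500 cells/well, left 24 h, then treated in triplicate with 1:4 dilutions up to 10,000 nM for 72 h. CTG luminescence was normalised to 0.1% DMSO and blank medium; IC50 from curve fit.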

[2] = system: PC-9; assay: Cell anti-proliferation experiment (CTG); type: cell-based; details: Homo sapiens, PC-9 (EGFR exon 19 deletion)
How it was run: as §1

[3] = system: HCC827; assay: Cell anti-proliferation experiment (CTG); type: cell-based; details: Homo sapiens, HCC827 (exon 19 deletion)
How it was run: (§2)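 Cells were seeded at 1500–2500/well and dosed after ~24 h with compound in a 1:4 dilution series up to 10,000 nM, in triplicate. Viability was read by CTG luminescence after 72 h, normalized to the 0.1% DMSO control and medium blank, and IC50 was obtained by curve fitting.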

[4] = system: Baf3-L858R-T790M - C797S (Baf3-LTC); assay: Cell anti-proliferation experiment (CTG); type: cell-based
How it was run: as §1

[5] = system: A549; assay: Cell anti-proliferation experiment (CTG); type: cell-based; details: Homo sapiens, A549 (wild-type EGFR)
How it was run: as §2

[6] = system: H1975; assay: Cell anti-proliferation experiment (CTG); type: cell-based; details: Homo sapiens, H1975 (EGFR T790M/L858R)
How it was run: as §1

[7] = system: Baf3-19del- T790M -C797S (Baf3-DTC); assay: Cell anti-proliferation experiment (CTG); type: cell-based
How it was run: as §1

[8] = Pharmacokinetic test of CD-1 mice; type: in vivo; set-up: AUC(0-t) / AUC(0-inf): concentration or dose not given beside the values; details: male CD-1 mice, single oral gavage (PO), plasma
Description: Plasma was collected from male CD-1 mice after a single gavage administration of the test substance. The plasma was then analyzed to calculate pharmacokinetic parameters.
The solvent is 5% DMSO + 10% Solutol HS-15 + 85% Saline.
Formulation preparation process: Accurately weighed the compound powder, added appropriate volumes of DMSO, Solutol and physiological saline in sequence, and vortexed sonicate at each step to finally form a homogeneous formulation solution.
Experimental animals were housed in the SPF-grade animal facility of Suzhou Xihua New Drug Development Co., Ltd. (License No.: SYXK(Su)2021-0019). Animals were fed normally for at least 3 days after purchase before the experiment, and each mouse was marked with a tail tag. Animals in the oral administration group were fasted overnight the day before administration, and were resumed feeding 4 hours later, with free access to water. Table 4. Sources and Number of Experimental Animals […]
Before administration, checked the state of the administration formulation and ensured its homogeneity by vortexing, stirring or shaking. Calculated the theoretical administration volume for each CD-1 mouse in each group according to the following formula. Theoretical administration volume (mL); = (Dose (mg⋅kg^−1))/(formulation concentration (mg⋅mL^−1)) × animal body weight (kg) [formula]
Table 5 Sample Collection Information
The collected blood was placed in test tubes containing the anticoagulant EDTA-K2 (15 % EDTA-K2 solution), stored on moist ice, and centrifuged within 45 min (1,500 g, 2-8 °C, 10 min). Plasma was then collected. The plasma was stored in pre-chilled centrifuge tubes, flash-frozen on dry ice, and subsequently stored in an ultra-low temperature freezer at -60 °C or lower until shipment.
A quantitative detection method for the analyte was established using Shimadzu liquid chromatography and Triple Quad™ 6500+AB mass spectrometry. The concentration of the parent drug in plasma was analyzed. The analytical results were controlled for variation using quality control samples, with the accuracy of the quality control samples expected to be between 80% and 120%.
The main pharmacokinetic parameters were calculated using a non-compartmental model in Winnonlin Phoenix software. These parameters included the area under the curve (AUC(0-t) and AUC(0-∞)), elimination half-life (T1/2), maximum plasma concentration (Cmax ), and time to reach maximum plasma concentration (Tmax).

[9] = A-431, 72 h, number after the class symbol
[10] = PC-9, 72 h, number after the class symbol
[11] = HCC827, 72 h, number after the class symbol
[12] = 72 h, number after the class symbol
[13] = A549, 72 h, number after the class symbol
[14] = NCI-H1975, 72 h, number after the class symbol

Row | SMILES | IC50 ([1]; A-431, 72 h, class symbol) [nM] | IC50 [1, 9] [nM] | IC50 ([2]; PC-9, 72 h, class symbol) [nM] | IC50 [2, 10] [nM] | IC50 ([3]; HCC827, 72 h, class symbol) [nM] | IC50 [3, 11] [nM] | IC50 ([4]; 72 h, class symbol) [nM] | IC50 [4, 12] [nM] | IC50 ([5]; A549, 72 h, class symbol) [nM] | IC50 [5, 13] [nM] | IC50 ([6]; NCI-H1975, 72 h, class symbol) [nM] | IC50 [6, 14] [nM] | IC50 ([7]; 72 h, class symbol) [nM] | IC50 [7, 12] [nM] | other results
1 | CCc1cc(Nc2ncc(Cl)c(Nc3ccccc3P(C)(C)=O)n2)c(OC)cc1N1CCN(C(=O)CN2CCC(c3cc4c(cc3F)c(N3CCC(=O)NC3=O)nn4C)C(F)(F)C2)CC1 (stereo not drawn) [TC-157] | > 1000 | 1650 | 100 to 1000 | 349 | 100 to 1000 | 812 | < 10 | 4.1 | 100 to 1000 | 948 | 10 to 100 | 24 | < 10 | 4.1 | –
2 | COc1cc(N2CCC(CN3CCN(c4ccc5c(c4)C(=O)N(C4CCC(=O)NC4=O)C5=O)CC3)CC2)c(-c2cnn(C)c2)cc1Nc1ncc(Br)c(Nc2ccc(C3CC3)cc2P(C)(C)=O)n1 (stereo not drawn) [DZL-1, reference compound] | > 1000 | > 5000 | 100 to 1000 | 205 | 100 to 1000 | 105 | 10 to 100 | 13.6 | > 1000 | > 5000 | 10 to 100 | 54.8 | 10 to 100 | 14.5 | –
3 | CCc1cc(Nc2ncc(Cl)c(Nc3ccccc3P(C)(C)=O)n2)c(OC)cc1N1CC2(CCN(C(=O)CN3CCC(c4cc5c(cc4F)c(N4CCC(=O)NC4=O)nn5C)C(F)(F)C3)CC2)C1 (stereo not drawn) [TA-023] | > 1000 | 1180 | 100 to 1000 | 461 | 100 to 1000 | 593 | < 10 | 8.4 | > 1000 | 1260 | 10 to 100 | 14.7 | 100 to 1000 | 202 | –
4 | CCc1cc(Nc2ncc(Cl)c(Nc3ccccc3P(C)(C)=O)n2)c(OC)cc1N1CCN(C(=O)CN2CCC(c3cc4c(cc3F)c(N3CCC(=O)NC3=O)nn4C)CC2)CC1 [TC-213] | > 1000 | 1340 | 100 to 1000 | 505 | 10 to 100 | 53 | < 10 | 0.8 | > 1000 | 1770 | 10 to 100 | 35.9 | < 10 | 8.9 | –
5 | CCc1cc(Nc2ncc(Cl)c(Nc3ccccc3C(=O)NC)n2)c(OC)cc1N1CCN(C(=O)CN2CCC(c3cc4c(cc3F)c(N3CCC(=O)NC3=O)nn4C)C(F)(F)C2)CC1 (stereo not drawn) [TA-003] | – | – | – | – | – | – | – | – | – | – | – | – | – | – | HL_ [8]: 2.45 h; AUC(0-inf) ([8]; mouse): 20700 ng·h/mL; AUC(0-t) ([8]; mouse): 20600 ng·h/mL; Cmax ([8]; mouse): 3410 ng/mL; MRT last ([8]; mouse): 5.11 h; Tmax ([8]; mouse): 4 h; IC50 ([1]; A-431, 72 hours, class symbol): > 1000 nM; IC50 ([2]; 72 hours, class symbol): > 1000 nM; IC50 ([3]; 72 hours, class symbol): > 1000 nM; IC50 ([4]; 72 hours, class symbol): 100 to 1000 nM; IC50 ([5]; 72 hours, class symbol): > 1000 nM; IC50 ([6]; NCI-H1975, 72 hours, class symbol): < 10 nM; IC50 ([7]; 72 hours, class symbol): 100 to 1000 nM
